Test results from patent US11572590B2, “Methods for evaluating tumor cell spheroids using 3D microfluidic cell culture device” (Dana-Farber Cancer Institute, Inc., priority 2017, dated 2023).
Read-outs that look alike come from different tables or passages of the source.

Tests used:
Test in all cases: SelectScreen Kinase Profiling, single point inhibition and IC50 for off-target kinases
Assay type in all cases: biochemical
off-target kinases [1] = molecular target: off-target kinases (Homo sapiens, UniProt Q9UM73, F1174L); conditions: ALK F1174L, mutant y, LanthaScreen Binding
off-target kinases [2] = molecular target: off-target kinases (Homo sapiens, UniProt P24723); conditions: PRKCH (PKC eta), ZLYTE, ATP Km app
off-target kinases [3] = molecular target: off-target kinases (Homo sapiens, UniProt Q9Y572); conditions: RIPK3, LanthaScreen Binding
off-target kinases [4] = molecular target: off-target kinases (Homo sapiens, UniProt P54764); conditions: EPHA4, ZLYTE, ATP Km app
off-target kinases [5] = molecular target: off-target kinases (Homo sapiens, UniProt P06493)
off-target kinases [6] = molecular target: off-target kinases (Homo sapiens, UniProt Q02750, S218D/S222D); conditions: MAP2K1 (MEK1) S218D S222D (mutant), LanthaScreen Binding
off-target kinases [7] = molecular target: off-target kinases (Homo sapiens, UniProt Q5S007, R1441C); conditions: LRRK2 R1441C, ATP Km app, Adapta
off-target kinases [8] = molecular target: T1, off-target kinases (Homo sapiens, UniProt Q12866); conditions: MERTK (cMER), ZLYTE, ATP Km app
T1 sequence (Q12866 21-999): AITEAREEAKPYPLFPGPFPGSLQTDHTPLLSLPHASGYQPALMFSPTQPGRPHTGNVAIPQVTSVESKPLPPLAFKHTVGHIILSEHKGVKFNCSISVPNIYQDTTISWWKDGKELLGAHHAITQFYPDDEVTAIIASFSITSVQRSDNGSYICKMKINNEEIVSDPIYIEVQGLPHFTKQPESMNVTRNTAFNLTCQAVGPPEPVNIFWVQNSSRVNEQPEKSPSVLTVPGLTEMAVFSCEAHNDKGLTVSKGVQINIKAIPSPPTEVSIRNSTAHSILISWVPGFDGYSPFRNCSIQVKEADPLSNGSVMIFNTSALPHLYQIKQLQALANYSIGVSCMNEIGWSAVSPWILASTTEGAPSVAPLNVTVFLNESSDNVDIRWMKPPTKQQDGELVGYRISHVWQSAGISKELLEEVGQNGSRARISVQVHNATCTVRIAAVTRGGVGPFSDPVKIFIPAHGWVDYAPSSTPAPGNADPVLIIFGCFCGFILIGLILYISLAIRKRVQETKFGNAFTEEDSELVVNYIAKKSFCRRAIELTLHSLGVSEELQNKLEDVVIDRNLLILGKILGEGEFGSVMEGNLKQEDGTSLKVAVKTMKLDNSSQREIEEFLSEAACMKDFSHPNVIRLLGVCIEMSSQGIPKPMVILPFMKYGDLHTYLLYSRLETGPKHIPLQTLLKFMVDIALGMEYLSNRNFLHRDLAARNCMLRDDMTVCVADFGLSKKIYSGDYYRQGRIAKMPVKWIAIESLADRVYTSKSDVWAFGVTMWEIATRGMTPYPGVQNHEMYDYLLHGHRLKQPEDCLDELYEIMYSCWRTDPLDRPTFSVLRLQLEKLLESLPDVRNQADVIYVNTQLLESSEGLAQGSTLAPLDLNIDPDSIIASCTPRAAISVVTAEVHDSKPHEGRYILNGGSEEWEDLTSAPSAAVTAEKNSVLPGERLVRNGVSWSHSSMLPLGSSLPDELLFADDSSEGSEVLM

Sequence of off-target kinases (Homo sapiens, UniProt Q5S007, R1441C) (Q5S007 whole entry R1441C): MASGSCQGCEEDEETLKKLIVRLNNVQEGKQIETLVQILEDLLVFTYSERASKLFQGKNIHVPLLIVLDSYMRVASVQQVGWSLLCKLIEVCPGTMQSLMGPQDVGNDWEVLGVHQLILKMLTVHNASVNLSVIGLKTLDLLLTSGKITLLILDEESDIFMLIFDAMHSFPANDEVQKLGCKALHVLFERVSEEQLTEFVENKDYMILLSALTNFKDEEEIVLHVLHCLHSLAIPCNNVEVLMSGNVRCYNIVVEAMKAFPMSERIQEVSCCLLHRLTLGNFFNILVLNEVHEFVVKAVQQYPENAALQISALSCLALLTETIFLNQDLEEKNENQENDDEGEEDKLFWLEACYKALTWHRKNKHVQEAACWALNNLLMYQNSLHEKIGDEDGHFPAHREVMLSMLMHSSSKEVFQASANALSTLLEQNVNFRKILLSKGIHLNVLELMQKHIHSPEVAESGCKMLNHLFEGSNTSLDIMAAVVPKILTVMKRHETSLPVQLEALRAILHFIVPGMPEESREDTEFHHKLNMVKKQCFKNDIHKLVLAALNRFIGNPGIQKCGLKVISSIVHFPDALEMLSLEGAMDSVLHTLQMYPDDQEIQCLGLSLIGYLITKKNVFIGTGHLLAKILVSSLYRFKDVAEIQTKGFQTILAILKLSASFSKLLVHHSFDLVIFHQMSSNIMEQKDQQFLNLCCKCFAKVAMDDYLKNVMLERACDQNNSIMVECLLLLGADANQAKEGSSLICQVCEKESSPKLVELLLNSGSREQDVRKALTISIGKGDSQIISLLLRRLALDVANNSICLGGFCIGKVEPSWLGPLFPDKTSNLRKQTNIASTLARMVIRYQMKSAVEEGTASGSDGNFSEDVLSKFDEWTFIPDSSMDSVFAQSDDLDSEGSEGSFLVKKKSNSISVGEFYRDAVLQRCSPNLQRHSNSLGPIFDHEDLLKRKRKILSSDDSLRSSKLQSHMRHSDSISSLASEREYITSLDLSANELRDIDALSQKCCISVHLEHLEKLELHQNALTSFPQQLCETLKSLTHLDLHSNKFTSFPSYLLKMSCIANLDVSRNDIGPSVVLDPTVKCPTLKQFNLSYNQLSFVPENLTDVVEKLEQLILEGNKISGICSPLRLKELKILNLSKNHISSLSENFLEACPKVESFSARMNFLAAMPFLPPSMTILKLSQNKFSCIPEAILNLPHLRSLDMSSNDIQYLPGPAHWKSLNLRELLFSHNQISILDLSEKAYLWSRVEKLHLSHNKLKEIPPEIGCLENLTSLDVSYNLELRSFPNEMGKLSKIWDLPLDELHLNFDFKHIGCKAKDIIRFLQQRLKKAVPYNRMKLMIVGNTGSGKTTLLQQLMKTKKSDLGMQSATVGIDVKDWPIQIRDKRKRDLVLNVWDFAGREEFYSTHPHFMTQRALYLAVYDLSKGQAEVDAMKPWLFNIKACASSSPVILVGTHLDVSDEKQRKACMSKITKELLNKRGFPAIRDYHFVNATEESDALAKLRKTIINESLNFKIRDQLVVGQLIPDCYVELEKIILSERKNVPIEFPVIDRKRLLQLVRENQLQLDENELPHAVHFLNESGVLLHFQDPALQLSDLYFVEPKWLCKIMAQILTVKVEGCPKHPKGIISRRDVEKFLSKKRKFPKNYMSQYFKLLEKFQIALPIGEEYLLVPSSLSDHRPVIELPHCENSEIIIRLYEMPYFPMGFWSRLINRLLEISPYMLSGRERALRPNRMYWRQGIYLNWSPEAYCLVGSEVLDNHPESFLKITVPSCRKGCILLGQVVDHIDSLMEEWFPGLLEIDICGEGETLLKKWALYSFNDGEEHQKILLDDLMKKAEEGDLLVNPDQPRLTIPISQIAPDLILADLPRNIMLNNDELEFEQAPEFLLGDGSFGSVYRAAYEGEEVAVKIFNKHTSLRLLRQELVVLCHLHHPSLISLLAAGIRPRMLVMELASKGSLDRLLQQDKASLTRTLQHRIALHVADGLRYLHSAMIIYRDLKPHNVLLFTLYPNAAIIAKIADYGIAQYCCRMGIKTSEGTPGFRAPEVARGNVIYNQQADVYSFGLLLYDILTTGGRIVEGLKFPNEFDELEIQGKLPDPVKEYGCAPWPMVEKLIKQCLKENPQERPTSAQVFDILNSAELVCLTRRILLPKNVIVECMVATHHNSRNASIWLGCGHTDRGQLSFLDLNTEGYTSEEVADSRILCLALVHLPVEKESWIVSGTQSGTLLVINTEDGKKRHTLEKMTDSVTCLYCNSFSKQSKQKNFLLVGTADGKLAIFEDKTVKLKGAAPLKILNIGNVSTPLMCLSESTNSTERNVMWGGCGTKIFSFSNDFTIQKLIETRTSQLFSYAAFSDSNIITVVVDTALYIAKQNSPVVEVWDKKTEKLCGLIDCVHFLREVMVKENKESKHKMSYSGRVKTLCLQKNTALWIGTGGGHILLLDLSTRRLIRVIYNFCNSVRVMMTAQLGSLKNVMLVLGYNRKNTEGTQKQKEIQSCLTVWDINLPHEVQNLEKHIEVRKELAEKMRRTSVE
Sequence of off-target kinases (Homo sapiens, UniProt Q9UM73, F1174L) (Q9UM73 19-1620 F1174L): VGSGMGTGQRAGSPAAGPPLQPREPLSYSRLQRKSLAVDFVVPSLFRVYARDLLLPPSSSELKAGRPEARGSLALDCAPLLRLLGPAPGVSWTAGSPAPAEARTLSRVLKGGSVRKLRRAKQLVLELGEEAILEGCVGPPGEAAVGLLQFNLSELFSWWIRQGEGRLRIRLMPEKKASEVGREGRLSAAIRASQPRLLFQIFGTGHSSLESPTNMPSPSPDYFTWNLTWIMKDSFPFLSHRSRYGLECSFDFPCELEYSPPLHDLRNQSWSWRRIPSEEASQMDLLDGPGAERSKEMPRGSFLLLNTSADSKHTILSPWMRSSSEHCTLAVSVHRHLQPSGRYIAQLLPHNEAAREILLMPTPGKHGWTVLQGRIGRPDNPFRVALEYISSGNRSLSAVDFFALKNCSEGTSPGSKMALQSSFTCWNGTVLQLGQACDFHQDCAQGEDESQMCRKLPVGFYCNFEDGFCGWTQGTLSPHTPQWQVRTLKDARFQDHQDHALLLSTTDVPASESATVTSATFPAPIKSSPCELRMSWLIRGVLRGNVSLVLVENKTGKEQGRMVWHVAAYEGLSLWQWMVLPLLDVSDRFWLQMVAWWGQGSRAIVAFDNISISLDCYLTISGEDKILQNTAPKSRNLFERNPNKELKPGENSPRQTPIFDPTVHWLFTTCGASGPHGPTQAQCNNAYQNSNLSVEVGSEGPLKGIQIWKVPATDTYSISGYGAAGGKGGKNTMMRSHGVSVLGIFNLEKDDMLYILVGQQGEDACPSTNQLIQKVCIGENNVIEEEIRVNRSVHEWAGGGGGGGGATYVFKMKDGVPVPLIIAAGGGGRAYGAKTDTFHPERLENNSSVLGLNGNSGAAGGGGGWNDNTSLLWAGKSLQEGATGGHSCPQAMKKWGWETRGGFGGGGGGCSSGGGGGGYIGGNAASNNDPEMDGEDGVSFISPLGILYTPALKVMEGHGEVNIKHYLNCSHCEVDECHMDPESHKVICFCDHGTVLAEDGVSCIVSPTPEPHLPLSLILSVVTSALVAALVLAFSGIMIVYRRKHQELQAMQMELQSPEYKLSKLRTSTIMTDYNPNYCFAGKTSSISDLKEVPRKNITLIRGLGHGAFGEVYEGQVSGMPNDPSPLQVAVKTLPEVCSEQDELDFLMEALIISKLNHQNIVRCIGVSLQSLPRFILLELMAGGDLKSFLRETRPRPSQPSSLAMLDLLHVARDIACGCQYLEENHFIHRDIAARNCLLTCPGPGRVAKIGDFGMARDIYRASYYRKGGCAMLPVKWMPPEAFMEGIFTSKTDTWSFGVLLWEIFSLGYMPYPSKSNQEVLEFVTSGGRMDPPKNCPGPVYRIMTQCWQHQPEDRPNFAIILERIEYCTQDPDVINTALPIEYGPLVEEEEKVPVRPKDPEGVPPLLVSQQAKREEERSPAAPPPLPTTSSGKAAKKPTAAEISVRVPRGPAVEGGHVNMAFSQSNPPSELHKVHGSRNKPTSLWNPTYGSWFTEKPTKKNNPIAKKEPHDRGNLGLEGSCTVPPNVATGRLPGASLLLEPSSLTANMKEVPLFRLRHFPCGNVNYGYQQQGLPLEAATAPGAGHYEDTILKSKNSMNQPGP
Sequence of off-target kinases (Homo sapiens, UniProt P24723) (P24723 whole entry): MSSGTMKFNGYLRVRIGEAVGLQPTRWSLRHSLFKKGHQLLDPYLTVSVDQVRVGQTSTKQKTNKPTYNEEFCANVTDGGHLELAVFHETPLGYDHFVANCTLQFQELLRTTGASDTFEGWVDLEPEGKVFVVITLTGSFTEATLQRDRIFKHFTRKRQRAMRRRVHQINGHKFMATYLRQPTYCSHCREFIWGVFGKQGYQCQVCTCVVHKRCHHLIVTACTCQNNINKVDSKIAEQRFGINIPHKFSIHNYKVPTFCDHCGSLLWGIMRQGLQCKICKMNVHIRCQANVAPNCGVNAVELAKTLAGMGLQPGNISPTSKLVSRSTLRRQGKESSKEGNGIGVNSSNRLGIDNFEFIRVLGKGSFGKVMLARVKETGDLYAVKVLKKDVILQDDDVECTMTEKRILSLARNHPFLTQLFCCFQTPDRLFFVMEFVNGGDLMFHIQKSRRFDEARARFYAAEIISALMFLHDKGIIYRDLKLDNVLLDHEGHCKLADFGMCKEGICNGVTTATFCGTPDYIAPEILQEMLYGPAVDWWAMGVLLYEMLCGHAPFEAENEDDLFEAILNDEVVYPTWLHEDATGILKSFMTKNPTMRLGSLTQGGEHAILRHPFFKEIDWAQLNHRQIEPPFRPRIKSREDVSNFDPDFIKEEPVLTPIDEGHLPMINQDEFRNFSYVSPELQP
Sequence of off-target kinases (Homo sapiens, UniProt P06493) (P06493 whole entry): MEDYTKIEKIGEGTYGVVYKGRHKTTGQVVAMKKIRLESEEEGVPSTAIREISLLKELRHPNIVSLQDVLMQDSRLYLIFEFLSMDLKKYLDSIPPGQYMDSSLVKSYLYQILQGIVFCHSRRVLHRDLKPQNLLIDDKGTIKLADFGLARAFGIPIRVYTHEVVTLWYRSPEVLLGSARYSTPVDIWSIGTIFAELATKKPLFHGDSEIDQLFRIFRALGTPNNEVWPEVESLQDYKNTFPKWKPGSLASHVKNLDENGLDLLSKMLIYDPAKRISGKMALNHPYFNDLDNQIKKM

N#Cc1cc(-c2ncnc(Nc3ccc(N4CCN(C5COC5)CC4)cc3)n2)ccc1OC1CCOCC1 [Compound 1, 5-(4-((4-(4-(oxetan-3-yl)piperazin-1-yl)phenyl)amino)-1,3,5-triazin-2-yl)-2-((tetrahydro-2H-pyran-4-yl)oxy)benzonitrile]
inhibition (off-target kinases [1]; read-out: % Inhibition 1): 12% | inhibition (off-target kinases [1]; read-out: % Inhibition 2): 14% | inhibition (off-target kinases [1]; read-out: % Inhibition Avg): 13% | inhibition (off-target kinases [2]; read-out: % Inhibition 1): 12% | inhibition (off-target kinases [2]; read-out: % Inhibition 2): 8% | inhibition (off-target kinases [2]; read-out: % Inhibition Avg): 10% | inhibition (off-target kinases [3]; read-out: % Inhibition 1): -1% | inhibition (off-target kinases [3]; read-out: % Inhibition 2): 1% | inhibition (off-target kinases [3]; read-out: % Inhibition Avg): 0% | inhibition (off-target kinases [4]; read-out: % Inhibition 1): 18% | inhibition (off-target kinases [4]; read-out: % Inhibition 2): 21% | inhibition (off-target kinases [4]; read-out: % Inhibition Avg): 20% | inhibition (off-target kinases [5]; CDK1/cyclin A2, LanthaScreen Binding, read-out: % Inhibition 1): 2% | inhibition (off-target kinases [5]; CDK1/cyclin A2, LanthaScreen Binding, read-out: % Inhibition 2): 12% | inhibition (off-target kinases [5]; CDK1/cyclin A2, LanthaScreen Binding, read-out: % Inhibition Avg): 7% | inhibition (off-target kinases [5]; CDK1/cyclin B, ZLYTE, ATP Km app, read-out: % Inhibition 1): 16% | inhibition (off-target kinases [5]; CDK1/cyclin B, ZLYTE, ATP Km app, read-out: % Inhibition 2): 15% | inhibition (off-target kinases [5]; CDK1/cyclin B, ZLYTE, ATP Km app, read-out: % Inhibition Avg): 16% | inhibition (off-target kinases [6]; read-out: % Inhibition 1): 10% | inhibition (off-target kinases [6]; read-out: % Inhibition 2): 7% | inhibition (off-target kinases [6]; read-out: % Inhibition Avg): 8% | inhibition (off-target kinases [7]; read-out: % Inhibition 1): 99% | inhibition (off-target kinases [7]; read-out: % Inhibition 2): 95% | inhibition (off-target kinases [7]; read-out: % Inhibition Avg): 97% | inhibition (off-target kinases [8]; read-out: % Inhibition 1): 27% | inhibition (off-target kinases [8]; read-out: % Inhibition 2): 22% | inhibition (off-target kinases [8]; read-out: % Inhibition Avg): 24%
